Measured values: patent publication US7112610B2, “Methods for using amino acids with affinity for the α2δ-protein” (Warner-Lambert Company LLC, priority 2003, dated 2006)
Where a name gives a salt, the structure may show the parent alone.

Target: T1, α2δ-subunit of a calcium channel (Sus scrofa, UniProt A0A287BIN3)
T1 construct: the α2δ-subunit derived from porcine brain tissue was used; from tissue; host or cells: porcine brain tissue
T1 sequence (A0A287BIN3 25-1109): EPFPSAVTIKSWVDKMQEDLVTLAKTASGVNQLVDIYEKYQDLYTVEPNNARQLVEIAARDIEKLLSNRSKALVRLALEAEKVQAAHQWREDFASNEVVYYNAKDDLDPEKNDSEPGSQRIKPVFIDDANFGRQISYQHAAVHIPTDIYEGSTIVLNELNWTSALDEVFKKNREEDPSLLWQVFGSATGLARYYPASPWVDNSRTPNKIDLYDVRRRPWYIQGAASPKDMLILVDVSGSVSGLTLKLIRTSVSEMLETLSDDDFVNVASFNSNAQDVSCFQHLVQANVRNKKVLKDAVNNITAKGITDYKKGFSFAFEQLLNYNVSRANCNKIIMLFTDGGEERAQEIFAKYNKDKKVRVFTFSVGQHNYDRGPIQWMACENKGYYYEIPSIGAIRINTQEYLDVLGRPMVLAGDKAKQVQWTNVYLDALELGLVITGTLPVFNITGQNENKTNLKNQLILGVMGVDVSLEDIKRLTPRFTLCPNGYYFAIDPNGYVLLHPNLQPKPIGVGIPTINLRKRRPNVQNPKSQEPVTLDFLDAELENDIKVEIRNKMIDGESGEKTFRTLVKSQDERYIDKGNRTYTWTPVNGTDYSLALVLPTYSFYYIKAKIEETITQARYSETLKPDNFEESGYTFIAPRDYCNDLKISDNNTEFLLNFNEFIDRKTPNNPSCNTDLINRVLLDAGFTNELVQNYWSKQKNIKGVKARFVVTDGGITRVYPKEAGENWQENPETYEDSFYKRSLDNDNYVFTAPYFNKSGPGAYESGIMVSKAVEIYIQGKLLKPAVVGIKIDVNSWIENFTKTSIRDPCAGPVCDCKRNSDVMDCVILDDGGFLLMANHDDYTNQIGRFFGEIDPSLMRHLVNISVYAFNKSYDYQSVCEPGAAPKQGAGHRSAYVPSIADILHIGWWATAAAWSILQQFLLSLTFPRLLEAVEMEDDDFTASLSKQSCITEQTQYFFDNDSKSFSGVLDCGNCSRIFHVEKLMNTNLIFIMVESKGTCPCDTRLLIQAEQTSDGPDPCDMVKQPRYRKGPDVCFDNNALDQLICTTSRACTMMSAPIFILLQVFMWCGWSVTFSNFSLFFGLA
Assay: radioligand binding assay using [3H]-gabapentin
Details: α2δ-subunit derived from porcine brain tissue
Excerpt: The ability of compounds of the present invention to bind to the α2δ-subunit of a calcium channel can be determined using the following binding assay.
The radioligand binding assay using [^3H]-gabapentin and the α2δ-subunit derived from porcine brain tissue was used (See, Gee, Nicolas S et al. “The novel anticonvulsant drug, gabapentin (Neurontin), binds to the α2δ subunit of a calcium channel”. J. Biol. Chem. (1996), 271 (10), 5768–76). Compounds of the invention bind with nanomolar to micromolar affinity for the α2δ protein.
In the case of `CCCC(C)(C)CC(CN)C(=O)O.Cl` (stereo not drawn) [2-Aminomethyl-4,4-dimethyl-heptanoic Acid Hydrochloride], the “affinity to the α2δ protein” value was 83 nM.
With `CCC[C@@H](C)C[C@H](CN)C(=O)O` [(2R,4R)-2-Aminomethyl-4-methyl-heptanoic Acid] the “affinity to the α2δ protein” value was 29 nM.
In the case of `CC(C)CCCC(C)C[C@@H](N)CC(=O)O` (stereo partly drawn) [R-3-amino-5,9-dimethyl-decanoic acid], the “affinity to the α2δ protein” value was 527 nM.
In the case of `CCC[C@H](C)C[C@H](N)CC(=O)O` [(3S,5S)-3-amino-5-methyl-octanoic acid], the “affinity to the α2δ protein” value was 1000 nM.

Test system: not given
Assay: not given
Details: not given
For `CCCC(C)(C)CC(CN)C(=O)O.Cl` (stereo not drawn) [2-Aminomethyl-4,4-dimethyl-heptanoic Acid Hydrochloride], the melting point was 229.5 to 231 °C.
Compound `CCC[C@@H](C)C[C@H](N)CC(=O)O.Cl` has a melting point of 142.5 to 142.7 °C.
Work on `CCC[C@@H](C)C[C@H](CN)C(=O)O` (as salt: hydrochloride) [(2R,4R)-2-Aminomethyl-4-methyl-heptanoic Acid] yielded a melting point of 226.3 to 228 °C.
With `CCCC[C@@H](C)C[C@H](N)CC(=O)O` (as salt: hydrochloride) the melting point was 142.5 to 143.3 °C.
In the case of `CCCC(C)(C)C[C@H](N)CC(=O)O` (as salt: hydrochloride), the melting point was 194.2 to 195.2 °C.
